This note sets out measurements from BindingDB's records for patent US20190276450 (Abbvie, 2019).

In assay [1] the target is Tyrosine-protein kinase JAK2 (Homo sapiens, UniProt O60674). The experiment in a line: JAK2 (PSTAT5 UT7) Alpha Screen Assay. How it is done:
Erythropoietin (EPO) is known to transduce its signal through EPO receptor via Jak2. Activity against Jak2 was therefore measured by determining inhibition of EPO induced phosphorylation of […] in UT7 cells. From these tests, the EC50 (effective concentration for 50% maximal response) values were determined in 1 μM for the test compounds.

In assay [2] the target is Non-receptor tyrosine-protein kinase TYK2 (Homo sapiens, UniProt P29597). Description: TYK2 (TYK2/JAK2 PSTAT4 T-BLAST) Alpha Screen Assay. The procedure:
IL-12 is known to transduce its signal through IL-12 receptor via Jak2 and/or Tyk2. For that reason, the activity against Tyk2/Jak2 was measured by determining the inhibition of IL-12 induced phosphorylation of STAT4 in T-blast cells. […] See, e.g., Sohn et al., J. Immunology (2013) 2205-2216.

The target in assay [3] is Tyrosine-protein kinase JAK1 (Homo sapiens, UniProt P23458). Description: JAK1 (PSTAT3 TF1) Alpha Screen Assay. The procedure: IL-6 is known to transduce its signal through IL-6 receptor via Jak1. Activity against Jak was therefore measured by determining inhibition of IL-6 induced phosphorylation of STAT3 in TF1 cells. From these tests, the EC50 (effective concentration for 50% maximal response) values were determined in 1 μM for the test compounds.
Chain of Tyrosine-protein kinase JAK1 (P23458 whole entry): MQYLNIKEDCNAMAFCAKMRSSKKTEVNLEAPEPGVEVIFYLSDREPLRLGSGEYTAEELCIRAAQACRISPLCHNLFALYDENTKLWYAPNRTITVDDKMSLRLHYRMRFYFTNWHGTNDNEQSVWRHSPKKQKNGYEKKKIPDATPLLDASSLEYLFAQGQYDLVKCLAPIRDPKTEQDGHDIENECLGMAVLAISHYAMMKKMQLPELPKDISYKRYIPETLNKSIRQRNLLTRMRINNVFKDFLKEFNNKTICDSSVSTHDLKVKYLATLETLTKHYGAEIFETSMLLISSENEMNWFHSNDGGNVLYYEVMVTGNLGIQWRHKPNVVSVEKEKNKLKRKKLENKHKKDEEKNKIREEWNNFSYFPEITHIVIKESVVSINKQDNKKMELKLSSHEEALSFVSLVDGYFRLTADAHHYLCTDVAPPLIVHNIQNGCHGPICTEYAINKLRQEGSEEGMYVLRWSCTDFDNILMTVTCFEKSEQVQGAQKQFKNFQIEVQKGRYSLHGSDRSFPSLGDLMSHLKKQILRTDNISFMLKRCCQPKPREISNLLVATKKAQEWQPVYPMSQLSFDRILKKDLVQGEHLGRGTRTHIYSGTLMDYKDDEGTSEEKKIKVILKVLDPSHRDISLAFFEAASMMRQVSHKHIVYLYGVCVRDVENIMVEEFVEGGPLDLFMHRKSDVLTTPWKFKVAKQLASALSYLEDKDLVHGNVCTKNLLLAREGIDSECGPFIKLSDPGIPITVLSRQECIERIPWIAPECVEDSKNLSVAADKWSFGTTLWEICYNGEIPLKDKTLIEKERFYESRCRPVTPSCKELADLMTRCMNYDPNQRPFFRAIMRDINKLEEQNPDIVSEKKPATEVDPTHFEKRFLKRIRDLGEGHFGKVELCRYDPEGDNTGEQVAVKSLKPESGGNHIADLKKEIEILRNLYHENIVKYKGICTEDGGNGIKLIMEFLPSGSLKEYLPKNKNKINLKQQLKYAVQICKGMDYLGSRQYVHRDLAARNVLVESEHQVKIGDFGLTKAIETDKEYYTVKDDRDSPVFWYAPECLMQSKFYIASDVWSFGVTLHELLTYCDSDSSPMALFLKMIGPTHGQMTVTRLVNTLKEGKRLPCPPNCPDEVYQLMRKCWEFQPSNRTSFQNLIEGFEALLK

Chain of Non-receptor tyrosine-protein kinase TYK2 (P29597 whole entry): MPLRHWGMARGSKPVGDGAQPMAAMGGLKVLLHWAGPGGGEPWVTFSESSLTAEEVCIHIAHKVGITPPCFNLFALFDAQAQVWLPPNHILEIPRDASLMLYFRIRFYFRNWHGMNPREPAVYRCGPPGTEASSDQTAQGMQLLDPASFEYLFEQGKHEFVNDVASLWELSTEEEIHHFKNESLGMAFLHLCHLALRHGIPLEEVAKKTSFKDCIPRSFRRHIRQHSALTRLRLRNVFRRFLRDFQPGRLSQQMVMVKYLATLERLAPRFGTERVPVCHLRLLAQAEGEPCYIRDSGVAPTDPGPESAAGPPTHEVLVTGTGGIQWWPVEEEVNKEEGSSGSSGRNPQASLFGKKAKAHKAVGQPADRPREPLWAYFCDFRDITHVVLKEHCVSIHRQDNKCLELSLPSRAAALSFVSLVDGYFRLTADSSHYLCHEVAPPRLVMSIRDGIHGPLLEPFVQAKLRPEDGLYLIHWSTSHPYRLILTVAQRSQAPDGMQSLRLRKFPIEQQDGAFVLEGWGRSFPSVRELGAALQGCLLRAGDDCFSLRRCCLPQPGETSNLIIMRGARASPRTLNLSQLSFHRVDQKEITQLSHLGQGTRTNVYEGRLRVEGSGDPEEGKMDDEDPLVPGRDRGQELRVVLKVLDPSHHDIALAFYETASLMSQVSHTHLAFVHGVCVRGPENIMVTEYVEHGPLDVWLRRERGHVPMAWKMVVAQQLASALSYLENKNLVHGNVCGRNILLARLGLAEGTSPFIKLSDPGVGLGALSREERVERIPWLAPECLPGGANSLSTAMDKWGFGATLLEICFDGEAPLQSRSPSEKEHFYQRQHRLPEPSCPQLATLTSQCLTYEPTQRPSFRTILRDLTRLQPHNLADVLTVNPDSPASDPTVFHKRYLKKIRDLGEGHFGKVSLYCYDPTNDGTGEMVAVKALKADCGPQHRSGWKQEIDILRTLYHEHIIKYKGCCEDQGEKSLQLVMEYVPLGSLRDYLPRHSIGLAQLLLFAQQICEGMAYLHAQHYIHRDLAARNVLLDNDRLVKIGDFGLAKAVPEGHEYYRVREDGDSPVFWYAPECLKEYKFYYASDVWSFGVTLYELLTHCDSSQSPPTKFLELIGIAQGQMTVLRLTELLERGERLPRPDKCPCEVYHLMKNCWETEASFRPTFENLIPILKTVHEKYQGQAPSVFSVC
Chain of Tyrosine-protein kinase JAK2 (O60674 whole entry): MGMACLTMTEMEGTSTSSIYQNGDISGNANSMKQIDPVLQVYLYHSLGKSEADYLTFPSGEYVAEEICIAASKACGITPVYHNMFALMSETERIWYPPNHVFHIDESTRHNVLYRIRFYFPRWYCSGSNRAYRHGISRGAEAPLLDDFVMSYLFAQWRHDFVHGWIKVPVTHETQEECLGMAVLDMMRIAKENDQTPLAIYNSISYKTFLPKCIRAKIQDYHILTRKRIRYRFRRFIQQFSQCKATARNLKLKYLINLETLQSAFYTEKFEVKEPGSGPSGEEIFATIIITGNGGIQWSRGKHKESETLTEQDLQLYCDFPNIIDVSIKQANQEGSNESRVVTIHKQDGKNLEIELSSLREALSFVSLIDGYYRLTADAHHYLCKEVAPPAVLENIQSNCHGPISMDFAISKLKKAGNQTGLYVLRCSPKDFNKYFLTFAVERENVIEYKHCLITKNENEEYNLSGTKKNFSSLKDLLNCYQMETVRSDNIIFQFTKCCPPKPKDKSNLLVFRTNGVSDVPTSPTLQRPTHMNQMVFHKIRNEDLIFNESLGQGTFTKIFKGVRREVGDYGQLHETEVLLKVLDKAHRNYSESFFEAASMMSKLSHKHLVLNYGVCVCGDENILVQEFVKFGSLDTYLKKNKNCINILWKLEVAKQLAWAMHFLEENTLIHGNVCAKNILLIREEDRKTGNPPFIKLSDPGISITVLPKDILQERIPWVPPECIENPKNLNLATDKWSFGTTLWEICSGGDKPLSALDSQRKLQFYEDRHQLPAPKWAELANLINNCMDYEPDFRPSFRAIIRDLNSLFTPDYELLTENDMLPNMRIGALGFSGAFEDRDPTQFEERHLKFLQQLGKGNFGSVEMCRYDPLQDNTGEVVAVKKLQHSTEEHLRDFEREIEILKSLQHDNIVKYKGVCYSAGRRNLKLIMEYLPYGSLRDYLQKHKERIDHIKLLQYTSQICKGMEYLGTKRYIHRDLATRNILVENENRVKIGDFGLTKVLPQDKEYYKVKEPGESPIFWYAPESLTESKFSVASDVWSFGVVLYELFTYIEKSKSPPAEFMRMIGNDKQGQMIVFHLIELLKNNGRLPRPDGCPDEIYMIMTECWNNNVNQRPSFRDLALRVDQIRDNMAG

For the molecule `COCc1cc(-c2cn(C)c3cnc(NC(N)=O)cc23)nc([C@]2(OC)CCOC2)c1` [US20190276450, Example 3], the EC50 in assay [1] is greater than 25 µM; in assay [2] it was 35 nM; in assay [3] it was 18 µM.
For `CO[C@@]1(c2cc(C(F)F)cc(-c3cn(C4COC4)c4cnc(NC(C)=O)cc34)n2)CCOC1` [US20190276450, Example 4.3], the 50% effective concentration (EC50) in assay [1] is greater than 25 µM; in assay [2], 174 nM; in assay [3], 54 µM.
`COCc1cc(-c2cn(C3COC3)c3cnc(NC(C)=O)cc23)nc([C@]2(OC)CCOC2)c1` [US20190276450, Example 4]: the EC50 in assay [1] is greater than 25 µM; in assay [2], 137 nM; in assay [3], greater than 100 µM.
With `CO[C@@]1(c2cc(OCC3COC3)cc(-c3cn(C)c4cnc(NC(C)=O)cc34)n2)CCOC1` [US20190276450, Example 6], the concentration for a half-maximal effect (EC50) in assay [1] was greater than 25 µM; in assay [2], 50 nM; in assay [3], 21 µM.
With `CO[C@@]1(c2cc(OCC[C@@H](C)O)cc(-c3cn(C)c4cnc(NC(C)=O)cc34)n2)CCOC1` [US20190276450, Example 7], the EC50 is greater than 25 µM in assay [1], 878 nM in assay [2] and 34 µM in assay [3].
For `CO[C@@]1(c2cc(OCC[C@H](C)O)cc(-c3cn(C)c4cnc(NC(C)=O)cc34)n2)CCOC1` [US20190276450, Example 9], in that order: greater than 25 µM, 85 nM and 42 µM.
Regarding `CO[C@@]1(c2cc(OCCO)cc(-c3cn(C)c4cnc(NC(C)=O)cc34)n2)CCOC1` [US20190276450, Example 10], the EC50 in assay [1] is greater than 25 µM; in assay [2], 91 nM; in assay [3], 27 µM.
For `CO[C@@]1(c2cc(O[C@H]3C[C@H](O)C3)cc(-c3cn(C)c4cnc(NC(C)=O)cc34)n2)CCOC1` [US20190276450, Example 11], the half-maximal effective concentration (EC50) in assay [1] is greater than 25 µM; in assay [2], 52 nM; in assay [3], 23 µM.
For `CO[C@@]1(c2cc(C#N)cc(-c3cn(C)c4cnc(NC(N)=O)cc34)n2)CCOC1` [US20190276450, Example 12.3], in that order: greater than 25 µM, 94 nM and 13 µM.
Turning to `COc1cc(-c2cn(C)c3cnc(NC(N)=O)cc23)nc([C@]2(OC)CCOC2)c1` [US20190276450, Example 12.6], the concentration for a half-maximal effect (EC50) is greater than 25 µM in assay [1], 39 nM in assay [2] and 15 µM in assay [3].
Take `CO[C@@]1(c2cncc(-c3cn(C)c4cnc(NC(N)=O)cc34)n2)CCOC1` [US20190276450, Example 12]: the EC50 in assay [1] was greater than 25 µM; in assay [2], 244 nM; in assay [3], 16.2 µM.
In the case of `CO[C@@]1(c2cc(O[C@@H](C)CCO)cc(-c3cn(C)c4cnc(NC(C)=O)cc34)n2)CCOC1` [US20190276450, Example 14.4], the EC50 is greater than 25 µM in assay [1], 134 nM in assay [2] and 63 µM in assay [3].
As to `CO[C@@]1(c2cc(OC[C@H](C)O)cc(-c3cn(C)c4cnc(NC(C)=O)cc34)n2)CCOC1` [US20190276450, Example 14.5], the 50% effective concentration (EC50) is greater than 25 µM in assay [1], 146 nM in assay [2] and 71 µM in assay [3].
For `CO[C@@]1(c2cc(OC[C@@H](C)O)cc(-c3cn(C)c4cnc(NC(C)=O)cc34)n2)CCOC1` [US20190276450, Example 14.6], in that order: greater than 25 µM, 87 nM and 49 µM.
As to `CO[C@@]1(c2cc(C(F)F)cc(-c3cn([C@H]4C[C@H](C#N)C4)c4cnc(NC(C)=O)cc34)n2)CCOC1` [US20190276450, Example 17.2], the values for the EC50 in assay [1], in assay [2] and in assay [3] were greater than 25 µM, 144 nM and 35 µM, respectively.
Turning to `CO[C@@]1(c2cccc(-c3cn([C@H]4C[C@H](C#N)C4)c4cnc(NC(C)=O)cc34)n2)CCOC1` [US20190276450, Example 17], the EC50 was greater than 25 µM in assay [1], 31 nM in assay [2] and 27 µM in assay [3].
For the molecule `CC(=O)Nc1cc2c(-c3cccc([C@]4(CO)CCOC4)n3)cn(C)c2cn1` [US20190276450, Example 21], the results for the concentration for a half-maximal effect (EC50) in assay [1], in assay [2] and in assay [3] were greater than 25 µM, 80 nM and 2.8 µM, respectively.
Regarding `CO[C@@]1(c2cc(OC(F)F)cc(-c3cn(C)c4cnc(NC(C)=O)cc34)n2)CCOC1` [US20190276450, Example 22.2], the EC50 in assay [1] was greater than 25 µM; in assay [2], 89 nM; in assay [3] it was 35 µM.
`CC(=O)Nc1cc2c(-c3cc(C(F)F)cc([C@]4(CO)CCOC4)n3)cn(C)c2cn1` [US20190276450, Example 22.5]: the EC50 was greater than 25 µM in assay [1], 72 nM in assay [2] and 7.05 µM in assay [3].
Turning to `COc1cc(-c2cn(C)c3cnc(NC(C)=O)cc23)nc([C@]2(CO)CCOC2)c1` [US20190276450, Example 22.6], the EC50 in assay [1] was greater than 25 µM; in assay [2], 130 nM; in assay [3], 11.1 µM.
`COCCOc1cc(-c2cn(C)c3cnc(NC(C)=O)cc23)nc([C@]2(CO)CCOC2)c1` [US20190276450, Example 22.8]: the EC50 in assay [1] was greater than 25 µM; in assay [2] it was 184 nM; in assay [3], 18.9 µM.
Turning to `CO[C@H](C)COc1cc(-c2cn(C)c3cnc(NC(C)=O)cc23)nc([C@]2(OC)CCOC2)c1` [US20190276450, Example 22.10], the values for the EC50 in assay [1], in assay [2] and in assay [3] were greater than 25 µM, 92 nM and greater than 25 µM, respectively.
For `COCc1cc(-c2cn(C)c3cnc(NC(C)=O)cc23)nc([C@]2(CO)CCOC2)c1` [US20190276450, Example 22], the EC50 in assay [1] is greater than 25 µM; in assay [2], 146 nM; in assay [3], 10.5 µM.
For `COCc1cc(-c2cn(C)c3cnc(NC(=O)CO)cc23)nc([C@]2(OC)CCOC2)c1` [US20190276450, Example 24], in that order: greater than 25 µM, 92 nM and greater than 100 µM.
As to `COCCOc1cc(-c2cn(C)c3cnc(NC(C)=O)cc23)nc([C@]2(OC)CCOC2)c1` [US20190276450, Example 25], the EC50 is greater than 25 µM in assay [1], 25 nM in assay [2] and 49 µM in assay [3].
In the case of `CO[C@@]1(c2cc(C(F)F)cc(-c3cn(C)c4cnc(NC(=O)CO)cc34)n2)CCOC1` [US20190276450, Example 26], the concentration giving a half-maximal response (EC50) was greater than 25 µM in assay [1], 50 nM in assay [2] and greater than 25 µM in assay [3].
